Among the data in patent publication US5025033A, “Alkylene diamines” (Takeda Chemical Industries, Ltd., priority 1988, dated 1991) are IC50 values, retold here.

Molecules are shown by their SMILES. Structures can show the parent of a compound that is named as a salt.

T1 sequence (P37136 32-614): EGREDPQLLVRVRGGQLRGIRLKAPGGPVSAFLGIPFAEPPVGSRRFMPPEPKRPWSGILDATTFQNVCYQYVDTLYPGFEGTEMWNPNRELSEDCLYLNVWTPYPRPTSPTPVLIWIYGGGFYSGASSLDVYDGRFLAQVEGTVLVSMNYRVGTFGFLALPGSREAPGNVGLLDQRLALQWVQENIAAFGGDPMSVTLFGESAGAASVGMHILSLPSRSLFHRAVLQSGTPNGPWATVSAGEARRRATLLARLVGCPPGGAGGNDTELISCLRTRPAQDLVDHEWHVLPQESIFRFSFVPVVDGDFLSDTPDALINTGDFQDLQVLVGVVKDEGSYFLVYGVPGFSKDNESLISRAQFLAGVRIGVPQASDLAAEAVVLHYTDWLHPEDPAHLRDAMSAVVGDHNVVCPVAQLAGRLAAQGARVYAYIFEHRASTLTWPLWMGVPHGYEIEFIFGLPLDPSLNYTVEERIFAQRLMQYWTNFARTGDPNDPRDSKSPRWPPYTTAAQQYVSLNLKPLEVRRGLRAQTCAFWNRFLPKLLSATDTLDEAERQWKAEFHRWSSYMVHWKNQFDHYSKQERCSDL

The assay addresses T1, Acetylcholinesterase (Rattus norvegicus, UniProt P37136).
T1 construct: the S1 fraction of a male Wistar rat cerebral cortex homogenate was used as a cholinesterase source; from tissue; host or cells: male Wistar rat cerebral cortex homogenate, S1 fraction
In words: Acetylcholinesterase inhibiting activity using (acetyl-[3H])-acetylcholine, S1 fraction of rat cerebral cortex homogenate. The settings on record: rat cerebral cortex homogenate S1 fraction; 30 minutes of incubation; read-out: Acetylcholinesterase inhibiting activity IC50. The format is biochemical, male Wistar rat. The protocol: The compounds according to the invention were examined for cholinesterase inhibiting activity using (acetyl-[^3 H])-acetylcholine. Thus, the S1 fraction of a male Wistar rat cerebral cortex homogenate was used as a cholinesterase source, and (acetyl-[^3 H])-acetylcholine (as substrate) and each test compound according to the invention were added and, after 30 minutes of incubation, the reaction was terminated. A toluene type scintillator was added, and the mixture was shaken, whereby the reaction product [^3 H]-acetic acid was transferred to the toluene layer. The cholinesterase activity was determined by counting said [^3 H]-acetic acid with a liquid scintillation counter.
The cholinesterase inhibiting activity of each test compound was expressed in terms of 50% inhibitory concentration (IC50).
`CCN(CCCCCNC(=O)/C=C/c1ccc(C)cc1)Cc1ccccc1` [Compound 14-15]: the IC50 is 16000 nM.

For the molecule `CCN(CCCCCCCN1C(=O)c2ccc([N+](=O)[O-])cc2C1=O)Cc1ccccc1` [Compound 2-15], the IC50 was 4600 nM.

`CCN(CCCCCCCNC(=O)/C=C/c1ccc([N+](=O)[O-])cc1)Cc1ccccc1` [Compound 14-10]: the IC50 was found to be 15000 nM.

On to `CCN(CCCCCN1C(=O)c2ccc([N+](=O)[O-])cc2C1=O)Cc1ccccc1[N+](=O)[O-]` [Compound 2-24], for which the IC50 worked out at 490 nM.

On to `CCN(CCCCCNC(=O)/C=C/c1ccc(Cl)c([N+](=O)[O-])c1)Cc1ccccc1OC` [Compound 18-1], for which the IC50 stood at 220 nM.

As to `CN(CCCCCCN1C(=O)c2ccc([N+](=O)[O-])cc2C1=O)Cc1ccccc1` [Compound 2-9], the IC50 was 480 nM.

In the case of `CCN(CCCCCN(C(C)=O)C(=O)/C=C/c1cccc(N)c1)Cc1ccccc1` [Compound 20-2], the IC50 is 2400 nM.

As for `CC(C)N(CCCCCN1C(=O)c2ccc([N+](=O)[O-])cc2C1=O)Cc1ccccc1` [Compound 2-12], the IC50 came out at 830 nM.

As for `Cc1ccc(S(=O)(=O)Nc2ccc3c(c2)C(=O)N(CCCCN(C)Cc2ccccc2)C3=O)cc1` [Compound 5-2], the IC50 turned out to be 37000 nM.

On to `CN(CCCCNC(=O)/C=C/c1ccccc1[N+](=O)[O-])Cc1ccccc1` [Compound 14-2], for which the IC50 came to 18000 nM.

For `CN(CCCCCCCN1C(=O)c2ccc([N+](=O)[O-])cc2C1=O)Cc1ccccc1` [Compound 2-10], the IC50 came to 1800 nM.

As for `CC(=O)N(CCCCN(C)Cc1ccccc1)C(=O)/C=C/c1ccc([N+](=O)[O-])cc1` [Compound 15, (E)-N-Acetyl-N-[4-(N-methyl-N-benzyl)aminobutyl]-3-(4-nitrophenyl)-2-propenamide hydrochloride], the IC50 is 19000 nM.

On to `CN(CCCCN1C(=O)c2ccc(NC(=O)c3ccccc3)cc2C1=O)Cc1ccccc1` [Compound 4, 2-[4-(N-Benzyl-N-methyl)aminobutyl]-5-benzoylamino-1H-isoindole-1,3(2H)-dione], for which the IC50 turned out to be 11000 nM.

Take `CCN(CCCCCNC(=O)/C=C/c1ccc(Cl)c([N+](=O)[O-])c1)Cc1ccccc1` [Compound 14-25]: the IC50 is 1900 nM.

Turning to `CCN(CCCCCN(C(C)=O)C(=O)/C=C/c1ccc(S(C)(=O)=O)cc1)Cc1ccccc1` [Compound 16-8], the IC50 was found to be 170 nM.

Regarding `CCN(CCCCCN1C(=O)c2ccc([N+](=O)[O-])cc2C1=O)Cc1ccccc1F` [Compound 2-22], the IC50 was 270 nM.

For `CCN(CCCCCN1C(=O)c2ccc(C(=O)NC)cc2C1=O)Cc1ccccc1` [Compound 12-13], the IC50 came out at 380 nM.

With `CCN(CCCCCN(C(C)=O)C(=O)/C=C/c1ccc(Cl)cc1)Cc1ccccc1` [Compound 16-5], the IC50 is 2200 nM.

As for `CCN(CCCCCNC(=O)/C=C/c1ccc(C#N)cc1)Cc1ccccc1OC` [Compound 18-4], the IC50 worked out at 370 nM.

Consider `CN(CCCCN1C(=O)c2ccc(N)cc2C1=O)Cc1ccccc1` [Compound 3, 5-Amino-2-[4-(N-benzyl-N-methyl)aminobutyl]-1H-isoindole-1,3(2H)-dione hydrochloride], for which the IC50 was 34000 nM.

Regarding `CCN(CCCCCN1C(=O)c2ccc([N+](=O)[O-])cc2C1=O)Cc1cccc(Cl)c1` [Compound 2-20], the IC50 was found to be 240 nM.

As for `O=C1c2ccc([N+](=O)[O-])cc2C(=O)N1CCCCN(CCO)Cc1ccccc1` [Compound 2-4], the IC50 was determined as 1500 nM.

Take `CCN(CCCCCN1C(=O)c2ccc(C)cc2C1=O)Cc1ccccc1` [Compound 12-11]: the half-maximal inhibitory concentration (IC50) stood at 1800 nM.

Turning to `CCN(CCCCCN1C(=O)c2ccc([N+](=O)[O-])cc2C1=O)Cc1cccc2ccccc12` [Compound 2-28], the IC50 came out at 110 nM.

For the molecule `CCN(CCCCCN1C(=O)c2ccc(C(=O)c3ccccc3)cc2C1=O)Cc1ccccc1` [Compound 12-10], the IC50 was found to be 1100 nM.

In the case of `CCN(CCCCCN1C(=O)c2ccc([N+](=O)[O-])cc2C1=O)Cc1ccc(Cl)cc1` [Compound 2-19], the IC50 turned out to be 240 nM.

With `CCN(CCCCCN1C(=O)c2ccc(C(=O)O)cc2C1=O)Cc1ccccc1` [Compound 12-8, 2-[5-(N-benzyl-N-ethyl)aminopentyl]-1,3-dioxo-1H-isoindole-5-carboxylic acid hydrochloride], the IC50 worked out at 8800 nM.

On to `CCN(CCCCCNC(=O)/C=C/c1ccc(OC)c(OC)c1)Cc1ccccc1` [Compound 14-11], for which the IC50 worked out at 5400 nM.

As to `CCN(CCCCCN1C(=O)c2ccc(NS(=O)(=O)Cc3ccccc3)cc2C1=O)Cc1ccccc1` [Compound 11-5], the IC50 is 240 nM.

In the case of `CN(CCCCN1C(=O)c2ccc([N+](=O)[O-])cc2C1=O)Cc1ccccc1` [Compound 1, 2-[4-(N-Benzyl-N-methyl)aminobutyl]-5-nitro-1H--isoindole-1,3(2H)-dione hydrochloride], the IC50 came out at 9500 nM.

Turning to `CCN(CCCCCNC(=O)/C=C/c1ccc(C#N)cc1)Cc1ccccc1` [Compound 14-16], the IC50 amounted to 5000 nM.

Consider `CCN(CCCCCN1C(=O)c2ccc(NS(C)(=O)=O)cc2C1=O)Cc1ccccc1` [Compound 11-6], for which the IC50 amounted to 470 nM.

Take `CCN(CCCCCNC(=O)/C=C/c1ccc(Cl)cc1)Cc1ccccc1` [Compound 14-14]: the IC50 was 16000 nM.

For the molecule `CCCCN(CCCCN1C(=O)c2ccc([N+](=O)[O-])cc2C1=O)Cc1ccccc1` [Compound 2-11], the IC50 was 1900 nM.

Turning to `CCN(CCCCCN(C(C)=O)C(=O)/C=C/c1ccc([N+](=O)[O-])c(OC(C)=O)c1)Cc1ccccc1` [Compound 16-10], the IC50 was determined as 280 nM.

With `CCN(CCCCCN(C(C)=O)C(=O)/C=C/c1ccc([N+](=O)[O-])cc1)Cc1ccccc1` [Compound 16-2], the IC50 was 560 nM.

Consider `CCN(CCCCCNC(=O)/C=C/c1cccc(N)c1)Cc1ccccc1` [Compound 20-1], for which the IC50 is 19000 nM.

Turning to `CCN(CCCCCN1C(=O)c2ccc(OS(C)(=O)=O)cc2C1=O)Cc1ccccc1` [Compound 12-12], the IC50 amounted to 380 nM.

Regarding `CCN(CCCCCN1C(=O)c2ccc(NS(=O)(=O)c3ccc(C)cc3)cc2C1=O)Cc1ccccc1` [Compound 11-4], the IC50 was found to be 2200 nM.

For the molecule `CCN(CCCCN(C(C)=O)C(=O)/C=C/c1ccc([N+](=O)[O-])cc1)Cc1ccccc1` [Compound 16-1], the IC50 was determined as 7300 nM.

Regarding `CCN(CCCCCNC(=O)/C=C/c1ccc(SC)cc1)Cc1ccccc1` [Compound 14-20], the IC50 came to 21000 nM.

`CCN(CCCCCN1C(=O)c2cccc([N+](=O)[O-])c2C1=O)Cc1ccccc1` [Compound 12-3]: the IC50 is 680 nM.

With `CC(C)N(CCCCN1C(=O)c2ccc([N+](=O)[O-])cc2C1=O)Cc1ccccc1` [Compound 2-7], the IC50 is 490 nM.

Regarding `CCN(CCCCCNC(=O)/C=C/c1ccc(S(C)(=O)=O)cc1)Cc1ccccc1OC` [Compound 18-3], the 50% inhibitory concentration (IC50) is 230 nM.

As for `CCN(CCCCCNC(=O)/C=C/c1cc(OC)c(OC)c(OC)c1)Cc1ccccc1` [Compound 14-23], the IC50 is 4100 nM.

On to `CCN(CCCCCCN(C(C)=O)C(=O)/C=C/c1ccc([N+](=O)[O-])cc1)Cc1ccccc1` [Compound 16-3], for which the IC50 worked out at 3000 nM.

On to `CCN(CCCCCN1C(=O)c2ccc(NC(=O)Cc3ccccc3)cc2C1=O)Cc1ccccc1` [Compound 11-3], for which the IC50 came to 1500 nM.

As to `CCN(CCCCCN1C(=O)c2ccc([N+](=O)[O-])cc2C1=O)Cc1cccc(OC)c1OC` [Compound 2-27], the IC50 came to 270 nM.

Turning to `CCN(CCCCCN1C(=O)c2ccc(C(=O)OC)cc2C1=O)Cc1ccccc1` [Compound 13, Methyl 2-[5-(N-benzyl-N-ethyl)aminopentyl]-1,3(2H)-dioxo-1H-isoindole-5-carboxylate hydrochloride], the IC50 turned out to be 580 nM.

Consider `O=C1c2ccc([N+](=O)[O-])cc2C(=O)N1CCCCNCc1cccc2ccccc12` [Compound 8-2], for which the IC50 was found to be 2900 nM.

`CCC(=O)N(CCCCCN(CC)Cc1ccccc1)C(=O)/C=C/c1ccc([N+](=O)[O-])cc1` [Compound 19-1]: the IC50 came to 4300 nM.

In the case of `CCN(CCCN1C(=O)c2ccc([N+](=O)[O-])cc2C1=O)Cc1ccccc1` [Compound 2-13], the IC50 was found to be 10000 nM.

For `CCN(CCCCCN(C(C)=O)C(=O)/C=C/c1ccc(Cl)c([N+](=O)[O-])c1)Cc1ccccc1` [Compound 16-11], the IC50 is 410 nM.

Regarding `CCN(CCCCCN1C(=O)c2ccc([N+](=O)[O-])cc2C1=O)Cc1ccccc1Cl` [Compound 2-21], the 50% inhibitory concentration (IC50) stood at 130 nM.

As to `CN(CCCCCN1C(=O)c2ccc([N+](=O)[O-])cc2C1=O)Cc1ccccc1` [Compound 2-2], the IC50 worked out at 1400 nM.

For the molecule `CCN(CCCCCNC(=O)/C=C/c1ccc([N+](=O)[O-])cc1)Cc1ccccc1OC` [Compound 18-2], the IC50 amounted to 290 nM.

Turning to `O=C1c2ccc([N+](=O)[O-])cc2C(=O)N1CCCCN1CCc2ccccc2C1` [Compound 2-6], the IC50 worked out at 18000 nM.

In the case of `CCCN(CCCCN1C(=O)c2ccc([N+](=O)[O-])cc2C1=O)Cc1ccccc1` [Compound 2-16], the IC50 is 1900 nM.

As to `CCN(CCCCCNC(=O)/C=C/c1ccccc1[N+](=O)[O-])Cc1ccccc1` [Compound 14-12], the IC50 was 3900 nM.

Take `CCN(CCCCCN1C(=O)c2ccc([N+](=O)[O-])cc2C1=O)Cc1ccc(OC)cc1` [Compound 2-18]: the IC50 was determined as 270 nM.

As for `CCN(CCCCCN1C(=O)c2ccc([N+](=O)[O-])cc2C1=O)Cc1ccccc1OC` [Compound 2-25], the IC50 is 28 nM.

In the case of `CCOC(=O)c1ccc2c(c1)C(=O)N(CCCCCN(CC)Cc1ccccc1)C2=O` [Compound 17, Ethyl 2-[5-(N-benzyl-N-ethyl)aminopentyl]-1,3(2H)-dioxo-1H-isoindole-5-carboxylate.hydrochloride], the IC50 amounted to 680 nM.

By IC50 is commonly meant the concentration needed to halve the response being measured.
